{"source": "PubChem BioAssay (NCI)", "assay_in_all_cases": "inhibition of tumour cell growth, NCI panel, 48 h", "key": {"HCT-116 colon": {"test_system": "HCT-116 colon"}, "NCI-H226 lung": {"test_system": "NCI-H226 lung"}, "TK-10 renal": {"test_system": "TK-10 renal"}, "SNB-75 CNS": {"test_system": "SNB-75 CNS"}, "A549 NSCLC": {"test_system": "A549 NSCLC"}, "DLD-1 colon": {"test_system": "DLD-1 colon"}, "COLO 205 colon": {"test_system": "COLO 205 colon"}, "CAKI-1 renal": {"test_system": "CAKI-1 renal"}, "OVCAR-8 ovarian": {"test_system": "OVCAR-8 ovarian"}, "SF-539 CNS": {"test_system": "SF-539 CNS"}, "XF 498 CNS": {"test_system": "XF 498 CNS"}, "K-562 leukemia": {"test_system": "K-562 leukemia"}, "SR leukemia": {"test_system": "SR leukemia"}, "HOP-92 NSCLC": {"test_system": "HOP-92 NSCLC"}, "SK-MEL-2 melanoma": {"test_system": "SK-MEL-2 melanoma"}, "SF-295 CNS": {"test_system": "SF-295 CNS"}, "KM20L2 colon": {"test_system": "KM20L2 colon"}, "A498 renal": {"test_system": "A498 renal"}, "SK-MEL-28 melanoma": {"test_system": "SK-MEL-28 melanoma"}, "OVCAR-5 ovarian": {"test_system": "OVCAR-5 ovarian"}, "MOLT-4 leukemia": {"test_system": "MOLT-4 leukemia"}, "IGROV1 ovarian": {"test_system": "IGROV1 ovarian"}, "DMS 273 small cell lung": {"test_system": "DMS 273 small cell lung"}, "NCI-H460 lung": {"test_system": "NCI-H460 lung"}, "SNB-78 CNS": {"test_system": "SNB-78 CNS"}, "SK-OV-3 ovarian": {"test_system": "SK-OV-3 ovarian"}, "SN12C renal": {"test_system": "SN12C renal"}, "M19-MEL melanoma": {"test_system": "M19-MEL melanoma"}, "EKVX NSCLC": {"test_system": "EKVX NSCLC"}, "UACC-62 melanoma": {"test_system": "UACC-62 melanoma"}, "UO-31 renal": {"test_system": "UO-31 renal"}, "HT29 colon": {"test_system": "HT29 colon"}, "SW-620 colon": {"test_system": "SW-620 colon"}, "DMS 114 small cell lung": {"test_system": "DMS 114 small cell lung"}, "MALME-3M melanoma": {"test_system": "MALME-3M melanoma"}, "NCI-H23 lung": {"test_system": "NCI-H23 lung"}, "SF-268 CNS": {"test_system": "SF-268 CNS"}, "786-0 renal": {"test_system": "786-0 renal"}, "ACHN renal": {"test_system": "ACHN renal"}, "U251 CNS": {"test_system": "U251 CNS"}, "UACC-257 melanoma": {"test_system": "UACC-257 melanoma"}, "HOP-18 NSCLC": {"test_system": "HOP-18 NSCLC"}, "HCC-2998 colon": {"test_system": "HCC-2998 colon"}, "HCT-15 colon": {"test_system": "HCT-15 colon"}, "KM12 colon": {"test_system": "KM12 colon"}, "SNB-19 CNS": {"test_system": "SNB-19 CNS"}, "SK-MEL-5 melanoma": {"test_system": "SK-MEL-5 melanoma"}, "OVCAR-4 ovarian": {"test_system": "OVCAR-4 ovarian"}, "HOP-62 NSCLC": {"test_system": "HOP-62 NSCLC"}, "OVCAR-3 ovarian": {"test_system": "OVCAR-3 ovarian"}, "HL-60(TB) leukemia": {"test_system": "HL-60(TB) leukemia"}, "CCRF-CEM leukemia": {"test_system": "CCRF-CEM leukemia"}, "M14 melanoma": {"test_system": "M14 melanoma"}, "LOX IMVI melanoma": {"test_system": "LOX IMVI melanoma"}, "RPMI-8226 leukemia": {"test_system": "RPMI-8226 leukemia"}, "NCI-H522 lung": {"test_system": "NCI-H522 lung"}}, "note": "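48-hour exposure; five concentrations; linearly interpolated endpoints. The concentration for full growth arrest is given as TGI.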"}
{"molecule": "C=CCSc1ncnc2c1ncn2C1OC(CO)C(O)C1O", "note": "(stereo unspecified)", "values": [{"measurement": "TGI", "setting": "HCT-116 colon", "value": "> 100", "unit": "µM"}, {"measurement": "TGI", "setting": "NCI-H226 lung", "value": "> 100", "unit": "µM"}, {"measurement": "TGI", "setting": "TK-10 renal", "value": "> 100", "unit": "µM"}, {"measurement": "TGI", "setting": "SNB-75 CNS", "value": "> 100", "unit": "µM"}, {"measurement": "TGI", "setting": "A549 NSCLC", "value": "> 100", "unit": "µM"}, {"measurement": "TGI", "setting": "DLD-1 colon", "value": "> 100", "unit": "µM"}, {"measurement": "TGI", "setting": "COLO 205 colon", "value": "> 100", "unit": "µM"}, {"measurement": "TGI", "setting": "CAKI-1 renal", "value": "> 100", "unit": "µM"}, {"measurement": "TGI", "setting": "OVCAR-8 ovarian", "value": 18.5, "unit": "µM"}, {"measurement": "TGI", "setting": "SF-539 CNS", "value": "> 100", "unit": "µM"}, {"measurement": "TGI", "setting": "XF 498 CNS", "value": "> 100", "unit": "µM"}, {"measurement": "TGI", "setting": "K-562 leukemia", "value": "> 100", "unit": "µM"}, {"measurement": "TGI", "setting": "SR leukemia", "value": "> 100", "unit": "µM"}, {"measurement": "TGI", "setting": "HOP-92 NSCLC", "value": "> 100", "unit": "µM"}, {"measurement": "TGI", "setting": "SK-MEL-2 melanoma", "value": "> 100", "unit": "µM"}, {"measurement": "TGI", "setting": "SF-295 CNS", "value": "> 100", "unit": "µM"}, {"measurement": "TGI", "setting": "KM20L2 colon", "value": "> 100", "unit": "µM"}, {"measurement": "TGI", "setting": "A498 renal", "value": "> 100", "unit": "µM"}, {"measurement": "TGI", "setting": "SK-MEL-28 melanoma", "value": "> 100", "unit": "µM"}, {"measurement": "TGI", "setting": "OVCAR-5 ovarian", "value": "> 100", "unit": "µM"}, {"measurement": "TGI", "setting": "MOLT-4 leukemia", "value": "> 100", "unit": "µM"}, {"measurement": "TGI", "setting": "IGROV1 ovarian", "value": "> 100", "unit": "µM"}, {"measurement": "TGI", "setting": "DMS 273 small cell lung", "value": "> 100", "unit": "µM"}, {"measurement": "TGI", "setting": "NCI-H460 lung", "value": "> 100", "unit": "µM"}, {"measurement": "TGI", "setting": "SNB-78 CNS", "value": "> 100", "unit": "µM"}, {"measurement": "TGI", "setting": "SK-OV-3 ovarian", "value": "> 100", "unit": "µM"}, {"measurement": "TGI", "setting": "SN12C renal", "value": "> 100", "unit": "µM"}, {"measurement": "TGI", "setting": "M19-MEL melanoma", "value": "> 100", "unit": "µM"}, {"measurement": "TGI", "setting": "EKVX NSCLC", "value": "> 100", "unit": "µM"}, {"measurement": "TGI", "setting": "UACC-62 melanoma", "value": "> 100", "unit": "µM"}, {"measurement": "TGI", "setting": "UO-31 renal", "value": "> 100", "unit": "µM"}, {"measurement": "TGI", "setting": "HT29 colon", "value": "> 100", "unit": "µM"}, {"measurement": "TGI", "setting": "SW-620 colon", "value": "> 100", "unit": "µM"}, {"measurement": "TGI", "setting": "DMS 114 small cell lung", "value": 70.4, "unit": "µM"}, {"measurement": "TGI", "setting": "MALME-3M melanoma", "value": "> 100", "unit": "µM"}, {"measurement": "TGI", "setting": "NCI-H23 lung", "value": "> 100", "unit": "µM"}, {"measurement": "TGI", "setting": "SF-268 CNS", "value": "> 100", "unit": "µM"}, {"measurement": "TGI", "setting": "786-0 renal", "value": "> 100", "unit": "µM"}, {"measurement": "TGI", "setting": "ACHN renal", "value": "> 100", "unit": "µM"}, {"measurement": "TGI", "setting": "U251 CNS", "value": "> 100", "unit": "µM"}, {"measurement": "TGI", "setting": "UACC-257 melanoma", "value": "> 100", "unit": "µM"}, {"measurement": "TGI", "setting": "HOP-18 NSCLC", "value": "> 100", "unit": "µM"}, {"measurement": "TGI", "setting": "HCC-2998 colon", "value": "> 100", "unit": "µM"}, {"measurement": "TGI", "setting": "HCT-15 colon", "value": "> 100", "unit": "µM"}, {"measurement": "TGI", "setting": "KM12 colon", "value": "> 100", "unit": "µM"}, {"measurement": "TGI", "setting": "SNB-19 CNS", "value": "> 100", "unit": "µM"}, {"measurement": "TGI", "setting": "SK-MEL-5 melanoma", "value": "> 100", "unit": "µM"}, {"measurement": "TGI", "setting": "OVCAR-4 ovarian", "value": "> 100", "unit": "µM"}, {"measurement": "TGI", "setting": "HOP-62 NSCLC", "value": "> 100", "unit": "µM"}, {"measurement": "TGI", "setting": "OVCAR-3 ovarian", "value": "> 100", "unit": "µM"}, {"measurement": "TGI", "setting": "HL-60(TB) leukemia", "value": "> 100", "unit": "µM"}, {"measurement": "TGI", "setting": "CCRF-CEM leukemia", "value": "> 100", "unit": "µM"}, {"measurement": "TGI", "setting": "M14 melanoma", "value": "> 100", "unit": "µM"}, {"measurement": "TGI", "setting": "LOX IMVI melanoma", "value": "> 100", "unit": "µM"}, {"measurement": "TGI", "setting": "RPMI-8226 leukemia", "value": "> 100", "unit": "µM"}, {"measurement": "TGI", "setting": "NCI-H522 lung", "value": "> 100", "unit": "µM"}]}
